Assay results from PubChem BioAssay AID248 (DTP/NCI, 2004).
“And” between values parts separate entries of the source, which are not always exact repeats. Identical values can stand only once. Toxic doses and inconclusive results are not listed. No stated cut-off is given here; in the data, active means T/C of 150% or more; inactive means T/C below 125%.

Test system: L1210 leukemia ip in BDF1 mice, survival T/C
Assay: NCI In Vivo Anticancer Drug Screen. Data for tumor model L1210 Leukemia (intraperitoneal) in B6D2F1 (BDF1) mice
Settings: endpoint: mean survival time, higher = longer survival
How it was run: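 Antitumor effect is assessed in tumor-bearing animals. Survival in the compound arm is compared with a vehicle-dosed control arm and expressed as their quotient.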

[1] = dose: 100.0 mg/kg/injection, schedule: Q04DX003 (ip), vehicle: Klucel (hydroxypropylcellulose) (HPC)
[2] = dose: 200.0 mg/kg/injection, schedule: Q04DX003 (ip), vehicle: Klucel (hydroxypropylcellulose) (HPC)
[3] = dose: 400.0 mg/kg/injection, schedule: Q04DX003 (ip), vehicle: Klucel (hydroxypropylcellulose) (HPC)
[4] = dose: 100.0 mg/kg/injection, schedule: Q04DX002 (ip), vehicle: Klucel (hydroxypropylcellulose) (HPC)
[5] = dose: 100.0 mg/kg/injection, schedule: Q01DX009 (ip), vehicle: saline
[6] = dose: 200.0 mg/kg/injection, schedule: Q01DX009 (ip), vehicle: saline
[7] = dose: 400.0 mg/kg/injection, schedule: Q01DX009 (ip), vehicle: saline
[8] = dose: 12.5 mg/kg/injection, schedule: Q01DX009 (ip), vehicle: saline
[9] = dose: 25.0 mg/kg/injection, schedule: Q01DX009 (ip), vehicle: saline
[10] = dose: 50.0 mg/kg/injection, schedule: Q01DX009 (ip), vehicle: saline
[11] = dose: 100.0 mg/kg/injection, schedule: Q04DX003 (ip), vehicle: saline
[12] = dose: 200.0 mg/kg/injection, schedule: Q04DX003 (ip), vehicle: saline
[13] = dose: 100.0 mg/kg/injection, schedule: Q01DX001 (ip), vehicle: carboxymethylcellulose (CMC)
[14] = dose: 200.0 mg/kg/injection, schedule: Q01DX001 (ip), vehicle: carboxymethylcellulose (CMC)
[15] = dose: 400.0 mg/kg/injection, schedule: Q01DX001 (ip), vehicle: carboxymethylcellulose (CMC)

Measured: T/C

CC1C=C2C(=O)C=C3OCOC34Oc3cc5c(cc3C(C1C)C24)OCO5 (configuration not stated)
inactive: [1] 94 % of control | [2] 97 % of control | [3] 97 % of control

CC1(C)C(N2CCCCC2)CS1(=O)=O (configuration not stated)
inactive: dose: 12.5 mg/kg/injection, schedule: Q01DX009 (ip), vehicle: saline sonified 103 % of control | dose: 25.0 mg/kg/injection, schedule: Q01DX009 (ip), vehicle: saline sonified 98 % of control | dose: 50.0 mg/kg/injection, schedule: Q01DX009 (ip), vehicle: saline sonified 94 % of control

CCCCN1C(c2ccccc2)=CN(Cc2ccccc2)C=C1c1ccccc1
inactive: [4] 106 % of control | dose: 200.0 mg/kg/injection, schedule: Q04DX002 (ip), vehicle: Klucel (hydroxypropylcellulose) (HPC) 110 % of control | dose: 400.0 mg/kg/injection, schedule: Q04DX002 (ip), vehicle: Klucel (hydroxypropylcellulose) (HPC) 103 % of control

CCCNC(=S)Nc1ccccc1
inactive: dose: 75.0 mg/kg/injection, schedule: Q01DX001 (ip), vehicle: other 101 % of control | dose: 150.0 mg/kg/injection, schedule: Q01DX001 (ip), vehicle: other 107 % of control

O=c1cnn(C2OC(CO)C(O)C2O)c(=S)[nH]1 (configuration not stated)
inactive: dose: 100.0 mg/kg/injection, schedule: Q01DX005 (ip), vehicle: saline 113 % of control | [5] 124 % of control | dose: 200.0 mg/kg/injection, schedule: Q01DX005 (ip), vehicle: saline 108 % of control | [6] 123 % of control | [7] 117 % of control

CC(=O)N[C@H](CO)[C@H](O)c1ccc([N+](=O)[O-])cc1
inactive: dose: 100.0 mg/kg/injection, schedule: Q04DX003 (ip), vehicle: saline sonified 98 % of control | dose: 200.0 mg/kg/injection, schedule: Q04DX003 (ip), vehicle: saline sonified 104 % of control | dose: 400.0 mg/kg/injection, schedule: Q04DX003 (ip), vehicle: saline sonified 103 % of control

O=C1c2ccccc2-c2cccc3ccc(Cc4ccccc4)c1c23
inactive: dose: 100.0 mg/kg/injection, schedule: Q01DX001 (ip), vehicle: saline with Tween-80 88 % of control | dose: 200.0 mg/kg/injection, schedule: Q01DX001 (ip), vehicle: saline with Tween-80 92 % of control

CCCCOC(=O)C(C)OC(=O)Nc1ccccc1 (configuration not stated)
inactive: dose: 100.0 mg/kg/injection, schedule: Q01DX009 (sc), vehicle: olive oil, sesame oil, peanut oil 95 % of control | dose: 100.0 mg/kg/injection, schedule: Q04DX003 (sc), vehicle: olive oil, sesame oil, peanut oil 100 % of control | dose: 200.0 mg/kg/injection, schedule: Q01DX009 (sc), vehicle: olive oil, sesame oil, peanut oil 92 % of control | dose: 200.0 mg/kg/injection, schedule: Q04DX003 (sc), vehicle: olive oil, sesame oil, peanut oil 105 % of control | dose: 400.0 mg/kg/injection, schedule: Q01DX009 (sc), vehicle: olive oil, sesame oil, peanut oil 92 % of control | dose: 400.0 mg/kg/injection, schedule: Q04DX003 (sc), vehicle: olive oil, sesame oil, peanut oil 115 % of control

Cc1sc([N+](=O)[O-])cc1[N+](=O)[O-]
inactive: dose: 50.0 mg/kg/injection, schedule: Q01DX009 (ip), vehicle: Klucel (hydroxypropylcellulose) (HPC) 103 % of control | dose: 100.0 mg/kg/injection, schedule: Q01DX009 (ip), vehicle: Klucel (hydroxypropylcellulose) (HPC) 92 % of control | [1] 97 % of control | [2] 96 % of control

NC1Cc2ccccc2C1
inactive: [8] 98 % of control | [9] 110 % of control and 93 % of control | dose: 25.0 mg/kg/injection, schedule: Q04DX003 (ip), vehicle: saline 104 % of control | [10] 92 % of control and 95 % of control | dose: 50.0 mg/kg/injection, schedule: Q04DX003 (ip), vehicle: saline 109 % of control | [5] 106 % of control and 92 % of control | [11] 96 % of control | [12] 92 % of control

C(=C\c1ccccn1)/c1ccccc1
inactive: [1] 100 % of control | [2] 94 % of control | [3] 103 % of control

N#CC(C#N)=C1CCSc2ccc(Cl)cc21
inactive: dose: 100.0 mg/kg/injection, schedule: Q01DX001 (ip), vehicle: saline 94 % of control | dose: 200.0 mg/kg/injection, schedule: Q01DX001 (ip), vehicle: saline 97 % of control | dose: 400.0 mg/kg/injection, schedule: Q01DX001 (ip), vehicle: saline 90 % of control

CCCP(C)(=S)CCC
inactive: dose: 25.0 mg/kg/injection, schedule: Q04DX002 (ip), vehicle: Klucel (hydroxypropylcellulose) (HPC) 112 % of control | dose: 50.0 mg/kg/injection, schedule: Q04DX002 (ip), vehicle: Klucel (hydroxypropylcellulose) (HPC) 108 % of control | [4] 112 % of control

NC(=O)NC(Cc1ccccc1)(C(=O)O)c1ccccc1 (configuration not stated)
inactive: [1] 103 % of control | [2] 98 % of control | [3] 103 % of control

CCOC(=O)CCc1c(C)[nH]c(C(=O)OCC)c1C
inactive: dose: 100.0 mg/kg/injection, schedule: Q01DX001 (ip), vehicle: Klucel (hydroxypropylcellulose) (HPC) 98 % of control | [1] 92 % of control | dose: 200.0 mg/kg/injection, schedule: Q01DX001 (ip), vehicle: Klucel (hydroxypropylcellulose) (HPC) 97 % of control | dose: 400.0 mg/kg/injection, schedule: Q01DX001 (ip), vehicle: Klucel (hydroxypropylcellulose) (HPC) 97 % of control | [3] 108 % of control

CC(C)CNC(=O)CCCc1ccc(N(CCCl)CCCl)cc1
inactive: dose: 4.0 mg/kg/injection, schedule: Q12HX018 (ip), vehicle: other 110 % of control | dose: 6.0 mg/kg/injection, schedule: Q12HX018 (ip), vehicle: other 95 % of control | dose: 8.0 mg/kg/injection, schedule: Q12HX018 (ip), vehicle: other 112 % of control

CCOC(=O)Cc1ccc2ccccc2c1
inactive: dose: 100.0 mg/kg/injection, schedule: Q04DX003 (ip), vehicle: saline with Tween-80 100 % of control | dose: 200.0 mg/kg/injection, schedule: Q04DX003 (ip), vehicle: saline with Tween-80 96 % of control | dose: 400.0 mg/kg/injection, schedule: Q04DX003 (ip), vehicle: saline with Tween-80 104 % of control

CC(=O)NCC(O)C(O)C(/C=N/Nc1ccccc1)=N/Nc1ccccc1 (configuration not stated)
inactive: dose: 50.0 mg/kg/injection, schedule: Q04DX002 (ip), vehicle: saline with Tween-80 91 % of control | dose: 100.0 mg/kg/injection, schedule: Q04DX002 (ip), vehicle: saline with Tween-80 87 % of control | dose: 200.0 mg/kg/injection, schedule: Q04DX002 (ip), vehicle: saline with Tween-80 95 % of control

COC(=O)C1=C(\N2CCOCC2)CCCC/C=C\1C(=O)OC
inactive: [13] 108 % of control | [14] 105 % of control | [15] 102 % of control

CCCCCCCCC/C=C(\CCCCCCCCCC)c1cc(C)ccc1C
inactive: dose: 12.5 mg/kg/injection, schedule: Q04DX002 (ip), vehicle: saline with Tween-80 94 % of control

O=C1C(n2ccc(=O)[nH]c2=O)CCN1CCO (configuration not stated)
inactive: [5] 105 % of control | [6] 100 % of control | [7] 97 % of control

N#CC(c1ccccc1)c1cccnc1 (configuration not stated)
inactive: [13] 94 % of control | [14] 92 % of control | [15] 89 % of control

O=C(c1ccccc1Cl)c1cccc2ccccc12
inactive: [11] 115 % of control | [12] 100 % of control | dose: 400.0 mg/kg/injection, schedule: Q04DX003 (ip), vehicle: saline 106 % of control

COC(=O)C1OC(n2cnc3c(N)ncnc32)C(OC(C)=O)C(OC(C)=O)C1OC(C)=O (configuration not stated)
inactive: dose: 50.0 mg/kg/injection, schedule: Q01DX001 (ip), vehicle: carboxymethylcellulose (CMC) 100 % of control | [13] 92 % of control | [14] 100 % of control | [15] 92 % of control

Oc1ccccc1SSc1ccccc1O
inactive: dose: 50.0 mg/kg/injection, schedule: Q01DX009 (ip), vehicle: saline with Tween-80 100 % of control | dose: 100.0 mg/kg/injection, schedule: Q01DX009 (ip), vehicle: saline with Tween-80 104 % of control | dose: 200.0 mg/kg/injection, schedule: Q01DX009 (ip), vehicle: saline with Tween-80 103 % of control

CC1(C)N=C(N)N=C(N)N1c1ccc(OCC(=O)N2CCOCC2)cc1
inactive: [8] 106 % of control | [9] 102 % of control | [10] 95 % of control | [5] 96 % of control

CSc1ncnc2c1ncn2N(CCCCN=C=S)C(C)=O
inactive: dose: 12.5 mg/kg/injection, schedule: Q01DX001 (ip), vehicle: saline with Tween-80 107 % of control | dose: 25.0 mg/kg/injection, schedule: Q01DX001 (ip), vehicle: saline with Tween-80 98 % of control | dose: 50.0 mg/kg/injection, schedule: Q01DX001 (ip), vehicle: saline with Tween-80 103 % of control
